Assay results reported in patent publication US20250026762A1, “FUSED PYRAZOLE UREA ANALOGS AS GLUCOSYLCERAMIDE SYNTHASE INHIBITORS” (Merck Sharp & Dohme LLC, priority 2021, published 2025).

Biological target: glucosylceramide synthase (GCS) enzyme in Golgi preparations from human A375 malignant melanoma skin cells (Homo sapiens (Human), UniProt Q16739)
Assay: UDP-Glo glucosylceramide synthase biochemical assay
Details: 1.5 μg crude golgi preparation; C6 ceramide and UDP-glucose at 2×Km; 20 h incubation at room temperature; luminescence
Source text: UDP-Glo™ Glucosylceramide Synthase Biochemical Assay
A UDP-Glo™ glucosylceramide synthase biochemical assay was utilized to evaluate the effect of test compounds on the activity of endogenous levels of GCS enzyme contained within Golgi preparations isolated from human A375 malignant melanoma skin cells. The UDP-Glo™ glucosylceramide synthase assay uses UDP-Glucose as a nucleotide-glycosyl donor and ceramide as substrate acceptor molecules. In the reaction, glucosylceramide synthase (GCS) transfers glucose from UDP-Glucose to ceramide. Glucosylceramide and UDP are released as products.
Using Promega's UDP-Glo™ Glycosyltransferase assay kit (Promega Corporation, Madison, WI, USA (Promega)), GCS activity was indirectly measured by detecting the amount of UDP produced. An aliquot of GCS enzyme (1.5 μg crude golgi preparation, total protein) and titrated test compound were aliquoted to each well and incubated for 30 minutes at room temperature. Substrate mixture was prepared by mixing C6 ceramide (Avanti Polar Lipids, Alabaster, AL USA (Avanti)) (micelles prepared at 0.6 mM in 0.6 mM DOPC) and UDP-glucose (20 μM; Promega), at concentrations equivalent to 2×Km, in assay buffer (25 mM HEPES (pH 7.5), 50 mM KCl, 5 mM MgCl2). An equivalent volume of substrate mixture was then added to each well. Following a 20 h incubation at room temperature to allow for GCS turnover of substrate, an equal volume of UDP detection reagent (Promega) was added to each well and incubated for an additional 75 minutes at room temperature to simultaneously convert the accumulated UDP product into ATP and generate light in a luciferase reaction. The generated light was detected using a luminometer. […] luminescence values (RLUs) were normalized to mean “min” and “max” effects, as determined on each plate. “Min” was defined as the mean of the values of the wells treated with vehicle (DMSO) and which represent 0% inhibition; “max” was defined as the mean of the values of the wells treated with a reference inhibitor and which represent the 100% effect. Values for % Emax and EC50 were determined by best-fitting the normalized data to a curve in Activity Base along a four-parameter logistic nonlinear regression (4PL) model (based on the Levenberg-Marquardt algorithm and defined by the equation below): […]
where: n is 4PMin (bottom of the curve); m is 4PMax (top of the curve); i is IP (inflection point of curve); andp is slope. See Levenberg, K., “A Method for the Solution of Certain Problems in Least Squares”, Quart. Appl. Math. 2, (1944), pp 164-168 and Marquardt, D., “An Algorithm for Least Squares Estimation on Nonlinear Parameters”, SIAM J. Appl. Math. 11, (1963) pp 431-441.

Chain of glucosylceramide synthase (GCS) enzyme in Golgi preparations from human A375 malignant melanoma skin cells (Q16739 whole entry): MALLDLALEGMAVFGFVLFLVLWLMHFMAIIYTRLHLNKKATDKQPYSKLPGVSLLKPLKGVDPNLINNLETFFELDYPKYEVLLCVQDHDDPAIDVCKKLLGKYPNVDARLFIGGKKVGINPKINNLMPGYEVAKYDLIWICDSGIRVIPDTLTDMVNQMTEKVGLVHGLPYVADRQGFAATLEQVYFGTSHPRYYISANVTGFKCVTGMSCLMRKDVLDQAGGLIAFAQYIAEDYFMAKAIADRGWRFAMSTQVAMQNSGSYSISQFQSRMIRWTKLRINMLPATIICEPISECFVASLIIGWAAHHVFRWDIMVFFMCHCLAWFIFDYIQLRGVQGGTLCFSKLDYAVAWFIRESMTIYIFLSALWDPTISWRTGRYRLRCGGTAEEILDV

First: O=C(N1CCN2CCC1CC2)n1nc(-n2cc(C(F)(F)F)cn2)c2c1[C@H]1C[C@H]1C2 [Compound 61, (1,4-diazabicyclo[3.2.2]nonan-4-yl)((4aS,5aS)-3-(4-(trifluoromethyl)-1H-pyrazol-1-yl)-4,4a,5,5a-tetrahydro-1H-cyclopropa[4,5]cyclopenta[1,2-c]pyrazol-1-yl)methanone]
Second: O=C(N1CCN2CCC1CC2)n1nc(-n2cc(C(F)(F)F)cn2)c2c1CCOC2 [Compound 59, (1,4-diazabicyclo[3.2.2]nonan-4-yl)(3-(4-(trifluoromethyl)-1H-pyrazol-1-yl)-6,7-dihydropyrano[4,3-c]pyrazol-1(4H)-yl)methanone]
The EC50 of the first is 31-fold lower: 0.1 nM for the first, 3.1 nM for the second.

Compared with `O=C(N1CCN2CCC1CC2)n1nc(-c2cc(F)c(F)c(F)c2)c2c1CCOC2` [Compound 46, (1,4-diazabicyclo[3.2.2]nonan-4-yl)(3-(3,4,5-trifluorophenyl)-6,7-dihydropyrano[4,3-c]pyrazol-1(4H)-yl)methanone], `O=C(N1CCN2CCC1CC2)n1nc(-c2ccc(F)c(F)c2F)c2c1CCOC2` [Compound 42, (1,4-diazabicyclo[3.2.2]nonan-4-yl)(3-(2,3,4-trifluorophenyl)-6,7-dihydropyrano[4,3-c]pyrazol-1(4H)-yl)methanone] is 5.1-fold lower in EC50: 4.6 nM for the first, 0.9 nM for the second. The second is the more potent here.

`Cc1cnn(-c2nn(C(=O)N3CCN4CCC3CC4)c3c2CCC3)c1` [Compound 57, (1,4-diazabicyclo[3.2.2]nonan-4-yl)(3-(4-methyl-1H-pyrazol-1-yl)-5,6-dihydrocyclopenta[c]pyrazol-1(4H)-yl)methanone] and `O=C(N1CCN2CCC1CC2)n1nc(-n2cc(Cl)cn2)c2c1COCC2` [Compound 55, (1,4-diazabicyclo[3.2.2]nonan-4-yl)(3-(4-chloro-1H-pyrazol-1-yl)-4,7-dihydropyrano[3,4-c]pyrazol-1(5H)-yl)methanone] are within 1.5-fold of each other in EC50: 9.2 nM for the first, 10.4 nM for the second.

Compared with `O=C(N1CCN2CCC1CC2)n1nc(-c2cc(Cl)ccc2F)c2c1COCC2` [Compound 29, (1,4-diazabicyclo[3.2.2]nonan-4-yl)(3-(5-chloro-2-fluorophenyl)-4,7-dihydropyrano[3,4-c]pyrazol-1(5H)-yl)methanone], `O=C(N1CCN2CCC1CC2)n1nc(-c2cccc(Cl)c2F)c2c1COCC2` [Compound 27] is 2.4-fold lower in EC50: 3.8 nM for the first, 1.6 nM for the second.

Going from `O=C(N1CCN2CCC1CC2)n1nc(-c2ccc(F)cc2)c2c1COCC2` [Compound 1, 1,4-diazabicyclo[3.2.2]nonan-4-yl(3-(4-fluorophenyl)-4,5-dihydropyrano[3,4-c]pyrazol-1(7H)-yl)methanone] to `O=C(N1CCN2CCC1CC2)n1nc(-c2ccc(F)cc2)c2c1CCC2` [Compound 12, 1,4-diazabicyclo[3.2.2]nonan-4-yl-[3-(4-fluorophenyl)-5,6-dihydro-4H-cyclopenta[c]pyrazol-1-yl]methanone], the EC50 falls from 5.1 nM to 0.3 nM (17-fold).

Going from `O=C(N1CCN2CCC1CC2)n1nc(-c2ccc(Cl)cn2)c2c1CCOC2` [Compound 48, (1,4-diazabicyclo[3.2.2]nonan-4-yl)(3-(5-chloropyridin-2-yl)-6,7-dihydropyrano[4,3-c]pyrazol-1(4H)-yl)methanone] to `O=C(N1CCN2CCC1CC2)n1nc(-c2ccc(Cl)cn2)c2c1COCC2` [Compound 23, (1,4-diazabicyclo[3.2.2]nonan-4-yl)(3-(5-chloropyridin-2-yl)-4,7-dihydropyrano[3,4-c]pyrazol-1(5H)-yl)methanone], the EC50 rises from 2 nM to 3.7 nM (1.9-fold). The first is the more potent here.

Going from `O=C(N1CCN2CCC1CC2)n1nc(-c2ccc(F)cc2)c2c1C1CCC2C1` [Compound 14, (R,R) and (S,S)-(1,4-diazabicyclo[3.2.2]nonan-4-yl)(3-(4-fluorophenyl)-4,5,6,7-tetrahydro-1H-4,7-methanoindazol-1-yl)methanone] to `O=C(N1CCN2CCC1CC2)n1nc(-c2ccc(F)cc2)c2c1C1CC1CC2` (single isomer, unassigned) [Compound 10], the EC50 falls from 1.2 nM to 0.3 nM (4-fold).

First: O=C(N1CCN2CCC1CC2)n1nc(C2=CCC(F)(F)CC2)c2c1COCC2 [Compound 35, (1,4-diazabicyclo[3.2.2]nonan-4-yl)(3-(4,4-difluorocyclohex-1-en-1-yl)-4,7-dihydropyrano[3,4-c]pyrazol-1(5H)-yl)methanone]
Second: O=C(N1CCN2CCC1CC2)n1nc(C2=CCCC2)c2c1CCC2 [Compound 37, [3-(cyclopenten-1-yl)-5,6-dihydro-4H-cyclopenta[c]pyrazol-1-yl]-(1,4-diazabicyclo[3.2.2]nonan-4-yl)methanone]
The EC50 of the first is 11-fold higher: 38.5 nM for the first, 3.6 nM for the second. The second is the more potent here.

`O=C(N1CCN2CCC1CC2)n1nc(-c2ccc(OC(F)F)cc2)c2c1CCC2` [Compound 5, 1,4-diazabicyclo[3.2.2]nonan-4-yl-[3-[4-(difluoromethoxy)phenyl]-5,6-dihydro-4H-cyclopenta[c]pyrazol-1-yl]methanone] and `COc1ccc(-c2nn(C(=O)N3CCN4CCC3CC4)c3c2CCC3)cc1` [Compound 4, 1,4-diazabicyclo[3.2.2]nonan-4-yl-[3-(4-methoxyphenyl)-5,6-dihydro-4H-cyclopenta[c]pyrazol-1-yl]methanone] are within 1.5-fold of each other in EC50: 0.3 nM for the first, 0.2 nM for the second.

First: CC1CCc2c(-c3ccc(F)cc3)nn(C(=O)N3CCN4CCC3CC4)c21 (single isomer, unassigned) [Compound 16, R or S-(1,4-diazabicyclo[3.2.2]nonan-4-yl)(3-(4-fluorophenyl)-6-methyl-5,6-dihydrocyclopenta[c]pyrazol-1(4H)-yl)methanone]
Second: O=C(N1CCN2CCC1CC2)n1nc(-c2ccc(F)cc2)c2c1CC(F)(F)C2 [Compound 20, (1,4-diazabicyclo[3.2.2]nonan-4-yl)(5,5-difluoro-3-(4-fluorophenyl)-5,6-dihydrocyclopenta[c]pyrazol-1(4H)-yl)methanone]
The EC50 of the first is 12-fold lower: 0.4 nM for the first, 4.7 nM for the second.

Compared with `O=C(N1CCN2CCC1CC2)n1nc(-n2cc(C(F)(F)F)cn2)c2c1COCC2` [Compound 53, (1,4-diazabicyclo[3.2.2]nonan-4-yl)(3-(4-(trifluoromethyl)-1H-pyrazol-1-yl)-4,7-dihydropyrano[3,4-c]pyrazol-1(5H)-yl)methanone], `O=C(N1CCN2CCC1CC2)n1nc(-c2ccc(C(F)(F)F)cc2)c2c1COCC2` [Compound 30, (1,4-diazabicyclo[3.2.2]nonan-4-yl)(3-(4-(trifluoromethyl)phenyl)-4,7-dihydropyrano[3,4-c]pyrazol-1(5H)-yl)methanone] is 1.5-fold lower in EC50: 4.1 nM for the first, 2.7 nM for the second.

`COc1ncc(-c2nn(C(=O)N3CCN4CCC3CC4)c3c2CCC3)cc1Cl` [Compound 6, [3-(5-chloro-6-methoxy-3-pyridyl)-5,6-dihydro-4H-cyclopenta[c]pyrazol-1-yl]-(1,4-diazabicyclo[3.2.2]nonan-4-yl)methanone] and `COc1cccc(-c2nn(C(=O)N3CCN4CCC3CC4)c3c2CCC3)c1F` [Compound 41, 1,4-diazabicyclo[3.2.2]nonan-4-yl-[3-(2-fluoro-3-methoxy-phenyl)-5,6-dihydro-4H-cyclopenta[c]pyrazol-1-yl]methanone] are within 1.5-fold of each other in EC50: 0.4 nM for the first, 0.5 nM for the second.

Compared with `O=C(N1CCN2CCC1CC2)n1nc(OC2CCCC2)c2c1CCC2` [Compound 26, (1,4-diazabicyclo[3.2.2]nonan-4-yl)(3-(cyclopentyloxy)-5,6-dihydrocyclopenta[c]pyrazol-1(4H)-yl)methanone], `CC1(C)COc2c(-c3ccc(F)cc3)nn(C(=O)N3CCN4CCC3CC4)c21` [Compound 17, (1,4-diazabicyclo[3.2.2]nonan-4-yl)(3-(4-fluorophenyl)-6,6-dimethyl-5,6-dihydro-1H-furo[3,2-c]pyrazol-1-yl)methanone] is 2.3-fold lower in EC50: 23.3 nM for the first, 10.1 nM for the second.
